In patent US11541081B2, “Methods and compositions for changing the composition of the skin microbiome using complex mixtures of bacterial strains” (priority 2016, dated 2023):

Legend:
[1] = test system: acne patients; assay: Pilot clinical study: safety evaluation; type: in vivo, human; details: BPO once a day, Day 1-Day 7, 14 subjects
Protocol: (§1) The pilot study was performed for 6 weeks with 14 subjects between 18-23 years. The primary endpoints were safety and efficacy trends. Two different bacterial formulations: A2 (a 2-strain mixture comprising strains C3 and K8 of P. acnes) and B4 (a 4-strain mixture comprising strains C3, K8, A5, and F4 of P. acnes) were tested.
(§2) Subjects were randomly distributed into two arms with different bacterial formulations administered to the subjects in each arm. Bacterial formulations were double-blinded: Arm 1: n=8 subjects received formulation A2. Arm 2: n=6 subjects received formulation B4. Subjects were evaluated on Day 1, Day 7, Day 21, and Day 42. In the first week, between Day 1 and Day 7, all subjects received Benzoyl peroxide (BPO) treatment (applied once a day). In the following 5 weeks, between Day 7 and Day 42, all subjects received bacterial formulation (gel applied 2× per day). FIG. 8A depicts the design of the pilot study.
The safety of the administered formulations was evaluated, for example, by visual evaluation of the redness, irritation or any other skin problems during each visit. No safety issues were observed during the study. Seven subjects reported dry or red skin during the use of BPO (Day 1-Day 7). […] No adverse effects were observed associated with the administration of live bacteria.

[2] = test system: skin microbiome; assay: Pilot clinical study: bacterial species composition of skin microbiome (16S); type: in vivo, human; details: after BPO application (Day 7)
Protocol: as §1, §2
The composition of bacterial species (16S) in the microbiome samples were analyzed on each visit. […]
When relating the bacterial species (16S) data with the strain level data (SLST) of P. acnes, it was observed that on Day 1 (ground state) the relative abundance of P. acnes was lower in acceptors (34%) compared to non-acceptors (41%). […] Relative abundances were determined using classical 16S amplicon sequencing. […]

[3] = MBC test, 24 h exposure to benzoic acid, then 4 days on RCM agar; details: all P. acnes strains tested
[4] = test system: P. acnes strains; assay: Inhibition of P. acnes strains by salicylic acid; type: cell-based
[5] = test system: P. acnes; details: Allgaier et al., 1985; cited from earlier work

Question: Which “subjects reporting dry or red skin” value [1] does the source give for `O=C(OOC(=O)c1ccccc1)c1ccccc1` [BPO, Benzoyl peroxide] here?
Answer: Seven

Question: And the “change of total P. acnes population” value [2]?
Answer: decrease

Question: With `O=C(O)c1ccccc1` [Benzoic acid] as the compound, how does the “concentration of benzoic acid affecting the growth of all strains (MBC test)” value [3] read?
Answer: greater than 0.31 % vol/vol

Question: For `O=C(O)c1ccccc1O` [salicylic acid], which “inhibition of P. acnes strains” value [4] is on record?
Answer: not inhibited

Question: For Epidermin, which “activity against P. acnes” value [5] is on record?
Answer: highly active
